From ChEMBL document CHEMBL3885861, “Open TG-GATES”

Species: Rattus norvegicus
Assay: Open TG-GATES - Regimen: Single
Format: toxicity, organism-based, Sprague-Dawley
Design: regimen Single, gender Male, age 6 weeks
Details: in vivo, po, route gavage; for gamma-GTP / ALP / ALT / AST / BUN / CRE / Ca / Cl / DBIL / GLC / IP / K / LDH / Na / PL / RALB / TBIL / TC / TG / TP: tissue Plasma; for APTT / Bas / Eos / Fbg / Hb / Ht / Lym / MCH / MCHC / MCV / Mono / Neu / PT / Plat / RBC / Ret: tissue Blood; for KIDNEY_L / KIDNEY_R / KIDNEY_TOTAL: tissue Kidney; for LIVER: tissue Liver
[1] = 1000 mg/kg, 3 h, dose level High
[2] = 1000 mg/kg, 6 h, dose level High
[3] = 1000 mg/kg, 9 h, dose level High
[4] = 1000 mg/kg, 24 h, dose level High

COc1ccc2[nH]c([S+]([O-])Cc3ncc(C)c(OC)c3C)nc2c1 (centres undefined) [OMEPRAZOLE]
gamma-GTP (300 mg/kg, 24 h, dose level Middle): 1 IU/L | TERMINAL_BW [1]: 220.8 g | APTT [1]: 18.6 s | Bas [1]: 0% | Eos [1]: 1% | Fbg [1]: 201.8 mg/dL | Hb [1]: 12.4 g/dL | Ht [1]: 36.3% | Lym [1]: 74.8% | MCH [1]: 21.2 pg | MCHC [1]: 34.3% | MCV [1]: 61.9 fL | Mono [1]: 3% | Neu [1]: 21% | PT [1]: 13.3 s | Plat [1]: 120.5 x10_4/uL | RBC [1]: 586.6 x10_4/ul | Ret [1]: 6.8% | KIDNEY_L [1]: 1 g | KIDNEY_R [1]: 1 g | KIDNEY_TOTAL [1]: 2 g | LIVER [1]: 9.8 g | ALP [1]: 966.6 IU/L | ALT [1]: 31.6 IU/L | AST [1]: 66 IU/L | BUN [1]: 11.2 mg/dL | CRE [1]: 0.4 mg/dL | Ca [1]: 10.2 mg/dL | Cl [1]: 100.6 meq/L | DBIL [1]: 0.072 mg/dL | GLC [1]: 208.8 mg/dL | IP [1]: 9.2 mg/dL | K [1]: 4 meq/L | LDH [1]: 174.6 IU/L | Na [1]: 140 meq/L | PL [1]: 140.8 mg/dL | RALB [1]: 3.3 g/dL | TBIL [1]: 0.1 mg/dL | TC [1]: 73.4 mg/dL | TG [1]: 56.8 mg/dL | TP [1]: 5.4 g/dL | gamma-GTP [1]: 0.8 IU/L | TERMINAL_BW [2]: 221 g | APTT [2]: 19.3 s | Bas [2]: 0% | Eos [2]: 1.2% | Fbg [2]: 208.8 mg/dL | Hb [2]: 12.9 g/dL | Ht [2]: 37.2% | Lym [2]: 70.6% | MCH [2]: 21.5 pg | MCHC [2]: 34.9% | MCV [2]: 61.8 fL | Mono [2]: 4.4% | Neu [2]: 23.2% | PT [2]: 13.2 s | Plat [2]: 129.9 x10_4/uL | RBC [2]: 602.4 x10_4/ul | Ret [2]: 7.1% | KIDNEY_L [2]: 1 g | KIDNEY_R [2]: 1.1 g | KIDNEY_TOTAL [2]: 2.1 g | LIVER [2]: 9.8 g | ALP [2]: 940.2 IU/L | ALT [2]: 27 IU/L | AST [2]: 65.6 IU/L | BUN [2]: 10 mg/dL | CRE [2]: 0.4 mg/dL | Ca [2]: 10.2 mg/dL | Cl [2]: 100.8 meq/L | DBIL [2]: 0.072 mg/dL | GLC [2]: 192.2 mg/dL | IP [2]: 9.7 mg/dL | K [2]: 4 meq/L | LDH [2]: 178.8 IU/L | Na [2]: 139.8 meq/L | PL [2]: 145.8 mg/dL | RALB [2]: 3.3 g/dL | TBIL [2]: 0.1 mg/dL | TC [2]: 78.8 mg/dL | TG [2]: 57 mg/dL | TP [2]: 5.5 g/dL | gamma-GTP [2]: 1.2 IU/L | TERMINAL_BW [3]: 219.2 g | APTT [3]: 18.3 s | Bas [3]: 0% | Eos [3]: 1% | Fbg [3]: 228.6 mg/dL | Hb [3]: 12.8 g/dL | Ht [3]: 37.1% | Lym [3]: 75.8% | MCH [3]: 21.3 pg | MCHC [3]: 34.6% | MCV [3]: 61.4 fL | Mono [3]: 3.4% | Neu [3]: 19% | PT [3]: 12.9 s | Plat [3]: 120.2 x10_4/uL | RBC [3]: 603.8 x10_4/ul | Ret [3]: 6.4% | KIDNEY_L [3]: 1 g | KIDNEY_R [3]: 1 g | KIDNEY_TOTAL [3]: 1.9 g | LIVER [3]: 9.6 g | ALP [3]: 705 IU/L | AST [3]: 62 IU/L | BUN [3]: 8 mg/dL | CRE [3]: 0.3 mg/dL | Ca [3]: 10.2 mg/dL | Cl [3]: 100.8 meq/L | DBIL [3]: 0.08 mg/dL | GLC [3]: 195.2 mg/dL | IP [3]: 10 mg/dL | K [3]: 3.8 meq/L | LDH [3]: 174.4 IU/L | Na [3]: 141 meq/L | PL [3]: 153.2 mg/dL | RALB [3]: 3.5 g/dL | TBIL [3]: 0.1 mg/dL | TC [3]: 80.4 mg/dL | TG [3]: 59.8 mg/dL | TP [3]: 5.5 g/dL | gamma-GTP [3]: 0.6 IU/L | TERMINAL_BW [4]: 226 g | APTT [4]: 19.9 s | Bas [4]: 0% | Eos [4]: 1% | Fbg [4]: 207.8 mg/dL | Hb [4]: 12.9 g/dL | Ht [4]: 37.7% | Lym [4]: 81.4% | MCH [4]: 21 pg | MCHC [4]: 34.1% | MCV [4]: 61.6 fL | Mono [4]: 4% | Neu [4]: 13.4% | PT [4]: 13.1 s | Plat [4]: 129.5 x10_4/uL | RBC [4]: 613.8 x10_4/ul | Ret [4]: 6.2% | KIDNEY_L [4]: 1 g | KIDNEY_R [4]: 1 g | KIDNEY_TOTAL [4]: 2.1 g | LIVER [4]: 12.1 g | ALP [4]: 924 IU/L | ALT [4]: 32.6 IU/L | AST [4]: 64.8 IU/L | BUN [4]: 11.2 mg/dL | CRE [4]: 0.4 mg/dL | Ca [4]: 10.1 mg/dL | Cl [4]: 100.6 meq/L | DBIL [4]: 0.1 mg/dL | GLC [4]: 200.4 mg/dL | IP [4]: 9.2 mg/dL | K [4]: 4.2 meq/L | LDH [4]: 230 IU/L | Na [4]: 140.6 meq/L | PL [4]: 162.8 mg/dL | RALB [4]: 3.4 g/dL | TBIL [4]: 0.2 mg/dL | TC [4]: 83.4 mg/dL | TG [4]: 169.2 mg/dL | TP [4]: 5.4 g/dL | gamma-GTP [4]: 1 IU/L
